Laboratory results from ChEMBL document CHEMBL3217511, “Structure-activity evaluation of new uracil-based non-nucleoside inhibitors of HIV reverse transcriptase” (Medchemcomm, 2013).

system: Human immunodeficiency virus type 1 reverse transcriptase (Human immunodeficiency virus 1), Q72547 [K103N,Y181C]; test: Inhibition of HIV1 Reverse transcriptase p51/p66 K103N/Y181C mutant at 10 uM after 30 mins using alpha-[32P]dATP by liquid scintillation counting

Row | SMILES | inhibition
1 | Cc1cc(C)cc(C(=O)OC2C=CC(n3ccc(=O)n(Cc4ccccc4)c3=O)C2)c1 (centres undefined) | 23%
2 | O=C(OC1C=CC(n2ccc(=O)n(Cc3ccccc3)c2=O)C1)c1cc(Cl)cc(Cl)c1 (centres undefined) | 25%
3 | O=C(OC1C=CC(n2ccc(=O)n(Cc3ccccc3)c2=O)C1)c1ccccc1 (centres undefined) | 15%
4 | Cc1ccnc2c1NC(=O)c1cccnc1N2C1CC1 [NEVIRAPINE] | < 10%

system: Human immunodeficiency virus 1; test: Inhibition of HIV1 Reverse transcriptase p51/p66 G190A mutant at 10 uM after 30 mins using alpha-[32P]dATP by liquid scintillation counting

Row | SMILES | inhibition
5 | Cc1cc(C)cc(C(=O)OC2C=CC(n3ccc(=O)n(Cc4ccccc4)c3=O)C2)c1 (centres undefined) | < 10%
6 | O=C(OC1C=CC(n2ccc(=O)n(Cc3ccccc3)c2=O)C1)c1cc(Cl)cc(Cl)c1 (centres undefined) | < 10%
7 | O=C(OC1C=CC(n2ccc(=O)n(Cc3ccccc3)c2=O)C1)c1ccccc1 (centres undefined) | < 10%
8 | Cc1ccnc2c1NC(=O)c1cccnc1N2C1CC1 [NEVIRAPINE] | < 10%

system: Human immunodeficiency virus type 1 reverse transcriptase (Human immunodeficiency virus 1), Q72547 [Y181C]; test: Inhibition of HIV1 Reverse transcriptase p51/p66 Y181C mutant at 10 uM after 30 mins using alpha-[32P]dATP by liquid scintillation counting

Row | SMILES | inhibition
9 | Cc1cc(C)cc(C(=O)OC2C=CC(n3ccc(=O)n(Cc4ccccc4)c3=O)C2)c1 (centres undefined) | 24%
10 | O=C(OC1C=CC(n2ccc(=O)n(Cc3ccccc3)c2=O)C1)c1cc(Cl)cc(Cl)c1 (centres undefined) | 17%
11 | O=C(OC1C=CC(n2ccc(=O)n(Cc3ccccc3)c2=O)C1)c1ccccc1 (centres undefined) | 11%
12 | Cc1ccnc2c1NC(=O)c1cccnc1N2C1CC1 [NEVIRAPINE] | < 10%

system: Human immunodeficiency virus type 1 reverse transcriptase (Human immunodeficiency virus 1), Q72547 [V106A]; test: Inhibition of HIV1 Reverse transcriptase p51/p66 V106A mutant at 10 uM after 30 mins using alpha-[32P]dATP by liquid scintillation counting

Row | SMILES | inhibition
13 | Cc1cc(C)cc(C(=O)OC2C=CC(n3ccc(=O)n(Cc4ccccc4)c3=O)C2)c1 (centres undefined) | 14%
14 | O=C(OC1C=CC(n2ccc(=O)n(Cc3ccccc3)c2=O)C1)c1cc(Cl)cc(Cl)c1 (centres undefined) | 20%
15 | O=C(OC1C=CC(n2ccc(=O)n(Cc3ccccc3)c2=O)C1)c1ccccc1 (centres undefined) | 12%
16 | Cc1ccnc2c1NC(=O)c1cccnc1N2C1CC1 [NEVIRAPINE] | < 10%

system: Human immunodeficiency virus type 1 reverse transcriptase (Human immunodeficiency virus 1), Q72547 [K103N]; test: Inhibition of HIV1 Reverse transcriptase p51/p66 K103N mutant at 10 uM after 30 mins using alpha-[32P]dATP by liquid scintillation counting

Row | SMILES | inhibition
17 | Cc1cc(C)cc(C(=O)OC2C=CC(n3ccc(=O)n(Cc4ccccc4)c3=O)C2)c1 (centres undefined) | 37%
18 | O=C(OC1C=CC(n2ccc(=O)n(Cc3ccccc3)c2=O)C1)c1cc(Cl)cc(Cl)c1 (centres undefined) | 53%
19 | O=C(OC1C=CC(n2ccc(=O)n(Cc3ccccc3)c2=O)C1)c1ccccc1 (centres undefined) | 26%
20 | Cc1ccnc2c1NC(=O)c1cccnc1N2C1CC1 [NEVIRAPINE] | < 10%

system: Human immunodeficiency virus type 1 reverse transcriptase (Human immunodeficiency virus 1), Q72547 [L100I]; test: Inhibition of HIV1 Reverse transcriptase p51/p66 L100I mutant at 10 uM after 30 mins using alpha-[32P]dATP by liquid scintillation counting

Row | SMILES | inhibition
21 | Cc1cc(C)cc(C(=O)OC2C=CC(n3ccc(=O)n(Cc4ccccc4)c3=O)C2)c1 (centres undefined) | 77%
22 | O=C(OC1C=CC(n2ccc(=O)n(Cc3ccccc3)c2=O)C1)c1cc(Cl)cc(Cl)c1 (centres undefined) | 89%
23 | O=C(OC1C=CC(n2ccc(=O)n(Cc3ccccc3)c2=O)C1)c1ccccc1 (centres undefined) | 83%
24 | Cc1ccnc2c1NC(=O)c1cccnc1N2C1CC1 [NEVIRAPINE] | 48%

biological target: Human immunodeficiency virus type 1 reverse transcriptase (Human immunodeficiency virus 1) (UniProt Q72547); test: Inhibition of wild-type HIV1 Reverse transcriptase p51/p66 at 10 uM after 30 mins using alpha-[32P]dATP by liquid scintillation counting

Row | SMILES | inhibition
25 | Cc1cc(C)cc(C(=O)OC2C=CC(n3ccc(=O)n(Cc4ccccc4)c3=O)C2)c1 (centres undefined) | 52%
26 | O=C(OC1C=CC(n2ccc(=O)n(Cc3ccccc3)c2=O)C1)c1cc(Cl)cc(Cl)c1 (centres undefined) | 59%
27 | O=C(OC1C=CC(n2ccc(=O)n(Cc3ccccc3)c2=O)C1)c1ccccc1 (centres undefined) | 45%

system: Human immunodeficiency virus 1; test: Selectivity ratio of IC50 for HIV1 Reverse transcriptase p51/p66 K103N mutant to IC50 for wild-type HIV1 Reverse transcriptase p51/p66

Row | SMILES | Ratio IC50
28 | Cc1cc(C)cc(C(=O)OC2C=CC(n3ccc(=O)n(Cc4ccccc4)c3=O)C2)c1 (centres undefined) | 2.11
29 | O=C(OC1C=CC(n2ccc(=O)n(Cc3ccccc3)c2=O)C1)c1cc(Cl)cc(Cl)c1 (centres undefined) | 1.69

system: Human immunodeficiency virus 1; test: Selectivity ratio of IC50 for HIV1 Reverse transcriptase p51/p66 L100I mutant to IC50 for wild-type HIV1 Reverse transcriptase p51/p66

Row | SMILES | Ratio IC50
30 | Cc1cc(C)cc(C(=O)OC2C=CC(n3ccc(=O)n(Cc4ccccc4)c3=O)C2)c1 (centres undefined) | 0.26
31 | O=C(OC1C=CC(n2ccc(=O)n(Cc3ccccc3)c2=O)C1)c1cc(Cl)cc(Cl)c1 (centres undefined) | 0.25

biological target: Human immunodeficiency virus type 1 reverse transcriptase (Human immunodeficiency virus 1, UniProt Q72547, K103N/Y181C); test: Inhibition of HIV1 Reverse transcriptase p51/p66 K103N/Y181C mutant after 30 mins using alpha-[32P]dATP by liquid scintillation counting

Row | SMILES | IC50
32 | Cc1cc(C)cc(C(=O)OC2C=CC(n3ccc(=O)n(Cc4ccccc4)c3=O)C2)c1 (centres undefined) | > 20 µM
33 | O=C(OC1C=CC(n2ccc(=O)n(Cc3ccccc3)c2=O)C1)c1cc(Cl)cc(Cl)c1 (centres undefined) | > 10 µM

biological target: not listed separately; test: Inhibition of HIV1 Reverse transcriptase p51/p66 G190A mutant after 30 mins using alpha-[32P]dATP by liquid scintillation counting; design: species or system Human immunodeficiency virus 1

Row | SMILES | IC50
34 | Cc1cc(C)cc(C(=O)OC2C=CC(n3ccc(=O)n(Cc4ccccc4)c3=O)C2)c1 (centres undefined) | > 100 µM
35 | O=C(OC1C=CC(n2ccc(=O)n(Cc3ccccc3)c2=O)C1)c1cc(Cl)cc(Cl)c1 (centres undefined) | > 100 µM
36 | O=C(OC1C=CC(n2ccc(=O)n(Cc3ccccc3)c2=O)C1)c1ccccc1 (centres undefined) | > 50 µM
37 | Cc1ccnc2c1NC(=O)c1cccnc1N2C1CC1 [NEVIRAPINE] | > 2000 µM

biological target: Human immunodeficiency virus type 1 reverse transcriptase (Human immunodeficiency virus 1, UniProt Q72547, Y181C); test: Inhibition of HIV1 Reverse transcriptase p51/p66 Y181C mutant after 30 mins using alpha-[32P]dATP by liquid scintillation counting

Row | SMILES | IC50
38 | Cc1cc(C)cc(C(=O)OC2C=CC(n3ccc(=O)n(Cc4ccccc4)c3=O)C2)c1 (centres undefined) | > 20 µM
39 | O=C(OC1C=CC(n2ccc(=O)n(Cc3ccccc3)c2=O)C1)c1cc(Cl)cc(Cl)c1 (centres undefined) | > 10 µM

biological target: Human immunodeficiency virus type 1 reverse transcriptase (Human immunodeficiency virus 1, UniProt Q72547, V106A); test: Inhibition of HIV1 Reverse transcriptase p51/p66 V106A mutant after 30 mins using alpha-[32P]dATP by liquid scintillation counting

Row | SMILES | IC50
40 | Cc1cc(C)cc(C(=O)OC2C=CC(n3ccc(=O)n(Cc4ccccc4)c3=O)C2)c1 (centres undefined) | > 20 µM
41 | O=C(OC1C=CC(n2ccc(=O)n(Cc3ccccc3)c2=O)C1)c1cc(Cl)cc(Cl)c1 (centres undefined) | > 10 µM

biological target: Human immunodeficiency virus type 1 reverse transcriptase (Human immunodeficiency virus 1, UniProt Q72547, K103N); test: Inhibition of HIV1 Reverse transcriptase p51/p66 K103N mutant after 30 mins using alpha-[32P]dATP by liquid scintillation counting

Row | SMILES | IC50
42 | Cc1cc(C)cc(C(=O)OC2C=CC(n3ccc(=O)n(Cc4ccccc4)c3=O)C2)c1 (centres undefined) | 17.3 µM
43 | O=C(OC1C=CC(n2ccc(=O)n(Cc3ccccc3)c2=O)C1)c1cc(Cl)cc(Cl)c1 (centres undefined) | 8.8 µM

biological target: Human immunodeficiency virus type 1 reverse transcriptase (Human immunodeficiency virus 1, UniProt Q72547, L100I); test: Inhibition of HIV1 Reverse transcriptase p51/p66 L100I mutant after 30 mins using alpha-[32P]dATP by liquid scintillation counting

Row | SMILES | IC50
44 | Cc1cc(C)cc(C(=O)OC2C=CC(n3ccc(=O)n(Cc4ccccc4)c3=O)C2)c1 (centres undefined) | 2.1 µM
45 | O=C(OC1C=CC(n2ccc(=O)n(Cc3ccccc3)c2=O)C1)c1cc(Cl)cc(Cl)c1 (centres undefined) | 1.29 µM

biological target: Human immunodeficiency virus type 1 reverse transcriptase (Human immunodeficiency virus 1, UniProt Q72547); test: Inhibition of wild-type HIV1 Reverse transcriptase p51/p66 after 30 mins using alpha-[32P]dATP by liquid scintillation counting

Row | SMILES | IC50
46 | O=C(Oc1ccc(Cn2ccc(=O)n(Cc3ccccc3)c2=O)cc1)c1ccccc1 | > 100 µM
47 | O=C(Cc1ccccc1)OC1C=CC(n2ccc(=O)n(Cc3ccccc3)c2=O)C1 (centres undefined) | 52 µM
48 | Cc1cc(C)cc(C(=O)OC2C=CC(n3ccc(=O)n(Cc4ccccc4)c3=O)C2)c1 (centres undefined) | 8.2 µM
49 | O=C(OC1C=CC(n2ccc(=O)n(C(=O)c3cc(Cl)cc(Cl)c3)c2=O)C1)c1cc(Cl)cc(Cl)c1 (centres undefined) | > 100 µM
50 | O=C(Oc1ccc(Cn2ccc(=O)[nH]c2=O)cc1)c1ccccc1 | > 100 µM
51 | Cc1cc(C)cc(C(=O)OC2C=CC(n3ccc(=O)n(C(=O)c4cc(C)cc(C)c4)c3=O)C2)c1 (centres undefined) | > 100 µM
52 | Cc1cc(C)cc(C(=O)OC2C=CC(n3ccc(=O)[nH]c3=O)C2)c1 (centres undefined) | > 100 µM
53 | O=C(Oc1cccc(Cn2ccc(=O)[nH]c2=O)c1)c1ccccc1 | > 100 µM
54 | O=C(OC1C=CC(n2ccc(=O)n(Cc3ccccc3)c2=O)C1)c1cc(Cl)cc(Cl)c1 (centres undefined) | 5.1 µM
55 | O=C(Oc1ccccc1Cn1ccc(=O)[nH]c1=O)c1ccccc1 | > 100 µM
56 | O=C(Oc1cccc(Cn2ccc(=O)n(Cc3ccccc3)c2=O)c1)c1ccccc1 | 32.3 µM
57 | N#Cc1cccc(C(=O)OC2C=CC(n3ccc(=O)n(Cc4ccccc4)c3=O)C2)c1 (centres undefined) | > 100 µM
58 | O=C(Cc1ccccc1)OC1C=CC(n2ccc(=O)n(Cc3cc(F)cc(F)c3)c2=O)C1 (centres undefined) | > 100 µM
59 | O=C(Oc1cccc(Cn2ccc(=O)[nH]c2=O)c1)c1cc(Cl)cc(Cl)c1 | 42 µM
60 | O=C(CCc1ccccc1)OC1C=CC(n2ccc(=O)n(Cc3cc(F)cc(F)c3)c2=O)C1 (centres undefined) | > 100 µM
61 | O=C(OC1C=CC(n2ccc(=O)[nH]c2=O)C1)c1cc(Cl)cc(Cl)c1 (centres undefined) | > 100 µM
62 | N#Cc1cccc(C(=O)OC2C=CC(n3ccc(=O)[nH]c3=O)C2)c1 (centres undefined) | > 100 µM
63 | O=C(Oc1ccccc1Cn1ccc(=O)n(Cc2ccccc2)c1=O)c1ccccc1 | > 100 µM
64 | O=C(CCc1ccccc1)OC1C=CC(n2ccc(=O)n(Cc3ccccc3)c2=O)C1 (centres undefined) | > 100 µM
